Results reported in PMC11992225, “Antibacterial compounds against non-growing and intracellular bacteria” (npj Antimicrobials and Resistance, 2025).
pEC50: −log10 of the molar value. “And” between values parts separate entries of the source, which are not always exact repeats. Equal values may be shown once.

Tests used:
[1] = tested on: non-growing S. aureus DSM2569; test: Dose-dependent killing analysis (CFU spot-plating) of stationary-phase S. aureus;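 also: drug concentration in µM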; type: cell-based, Staphylococcus aureus; conditions: S. aureus, vs 9,097 before treatment
In short: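 Stationary-phase S. aureus DSM2569 was grown and treated for 24 h in 1:4 CA-MHB at pH 7.4. Treated samples were serially diluted 10-fold in PBS and spot-plated on LB agar, which was incubated overnight at 37 °C. Survivors were counted as CFU over three biological replicates.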

[2] = tested on: non-growing P. aeruginosa DSM1117; test: Dilution-regrowth assay (OD600, start-growth-time) on stationary-phase P. aeruginosa; type: cell-based, Pseudomonas aeruginosa; conditions: P. aeruginosa; for pEC50: Pseudomonas aeruginosa, DSM1117, regrowth delay of non-growing bacteria, 1:4 CA-MHB pH 7.4, 24 h treatment, OD600 8 h after dilution, read-out: EC50; for Regrowth, OD600 at 6h or 8h after dilution into drug-free medium: average
Method: To determine the spectrum of activity of the compounds that were effective against non-growing UPEC, we further assessed their efficacy against the well-characterized Gram-negative and Gram-positive reference strains P. aeruginosa DSM1117 and S. aureus DSM2569, respectively. The cultures were grown and treated for 24 h in 1:4 CA-MHB (pH 7.4). […].
For better characterization of the compounds causing the strongest regrowth delay, we performed the regrowth step of the dilution-regrowth experiments on a plate reader, measuring the OD600 at 20-min intervals for over 20 h instead of using an endpoint measurement. This approach allowed us to capture the time when cultures reached a threshold optical density (start-growth-time, SGT[15]).
Overnight cultures of UPEC, P. aeruginosa and S. aureus were grown in test tubes containing 3 ml of LB broth (~16 h), then diluted 1:100 into either 1:4 diluted CA-MHB medium buffered with 40 mM HEPES (pH 7.4) or, in case of UPEC, into LPM medium[25] supplemented with 49 µM MgCl2 and buffered with 30 mM MES (pH 5.5). The cultures were incubated for 24 h in non-baffled Erlenmeyer flasks at 37 °C with shaking at 200 rpm.
For P. aeruginosa and S. aureus, dose–response analysis was conducted in 96-well plates with a 200 μl assay volume, following the procedure used for screening assay validation experiments. Aliquots of the 39 compounds active against non-growing UPEC were obtained from SelleckChem and MedChem Express. Stock solutions were prepared and stored according to the manufacturers’ instructions, then diluted in 10% DMSO before use. Cultures were incubated for 24 h in 1:4 diluted CA-MHB medium under the same conditions used for UPEC cultivation. In preliminary experiments, each compound was tested at a concentration of 20 μM in the dilution-regrowth assay with 4 technical replicates. Regrowth was monitored using a microplate reader at 37 °C with continuous shaking, and OD600 was recorded every 20 min. The time at which OD600 exceeded the threshold of 0.12 was recorded as the Start_Growth-Time.
The statistical analysis of all data, as well as EC50 and IC50 determination, was conducted using GraphPad Prism 10.2.3. Statistical significance of the drug effects was assessed using a one-way ANOVA followed by Dunnett’s test, comparing each treatment to the drug-free control. Statistical significance of the differences in chemical characteristics between the hit compounds and the Prestwick library was assessed using a Mann–Whitney test. Statistical significance was set at P ≤ 0.05. A five-parameter logistic equation was used for asymmetric sigmoidal curve fitting and for EC50 and IC50 determination. The Venn diagram in Fig. 1F was prepared using BioVenn web application. Characteristics of the chemical and physical properties of Prestwick library compounds were obtained from Supplementary Table S1 from reference. Characteristics of the hit compounds not included in the Prestwick library were retrieved from the PubChem database.

non-growing UPEC CFT073 = test: Dose-dependent killing analysis (CFU spot-plating) of stationary-phase UPEC; type: cell-based, Escherichia coli; conditions: for log10(CFU/ml) after treatment: individual replicates
In short: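 Non-growing (stationary-phase) UPEC CFT073 treated with compounds in 96-well format at 200 μl, then 10-fold serially diluted in PBS and 10 μl spots plated on LB agar. Plates incubated overnight at 37 °C; colonies counted at lowest resolvable dilution to give CFU. Three biological replicates.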

[3] = tested on: non-growing S. aureus DSM2569; test: Dilution-regrowth assay (OD600, start-growth-time) on stationary-phase S. aureus; type: cell-based, Staphylococcus aureus; conditions: S. aureus
In short: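 Stationary-phase S. aureus cultures were grown and exposed to compound for 24 h in 1:4 CA-MHB (pH 7.4) at 37 °C in 96-well plates with 200 μl volume. After dilution into drug-free medium, regrowth was tracked in a plate reader at 37 °C with continuous shaking, reading OD600 every 20 min; EC50 came from five-parameter logistic fitting.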

## COc1c(N2CCNC(C)C2)c(F)cc2c(=O)c(C(=O)O)cn(C3CC3)c12 (stereo not drawn) [Gatifloxacin]
[1]; drug conc. 0.1
  average Δlog10(CFU/ml) (killing): -0.121 log10(CFU/ml)
[1]; drug conc. 0.5
  average Δlog10(CFU/ml) (killing): -0.040 log10(CFU/ml)
[1]; drug conc. 2.5
  average Δlog10(CFU/ml) (killing): 0.371 log10(CFU/ml)
[1]; drug conc. 10
  average Δlog10(CFU/ml) (killing): 0.946 log10(CFU/ml)
[2]
  pEC50: 6.74
non-growing UPEC CFT073; 20 µM, preliminary experiments
  bactericidal effect against stationary-phase UPEC cultures: bactericidal effects

## CN1CCN(c2cc3c(cc2F)c(=O)c(C(=O)O)cn3-c2ccc(F)cc2)CC1 [Difloxacin]
[1]; drug conc 0.1
  average Δlog10(CFU/ml) (killing): 0.032 log10(CFU/ml)
[1]; drug conc 0.5
  average Δlog10(CFU/ml) (killing): 0.171 log10(CFU/ml)
[1]; drug conc 2.5
  average Δlog10(CFU/ml) (killing): 0.107 log10(CFU/ml)
[1]; drug conc 10
  average Δlog10(CFU/ml) (killing): 0.435 log10(CFU/ml)
[2]
  pEC50: 5.63
[3]; drug conc 0.1
  OD600 at 6h or 8h after dilution into drug-free medium (regrowth): 0.660
[3]; drug conc 0.5
  OD600 at 6h or 8h after dilution into drug-free medium (regrowth): 0.630
[3]; drug conc 2.5
  OD600 at 6h or 8h after dilution into drug-free medium (regrowth): 0.506
[3]; drug conc 10
  OD600 at 6h or 8h after dilution into drug-free medium (regrowth): 0.371
[3]; Staphylococcus aureus, DSM2569, regrowth delay of non-growing bacteria, 1:4 CA-MHB pH 7.4, 24 h treatment, OD600 8 h after dilution, read-out: EC50
  pEC50: 5.53

## CO/N=C1\CN(c2nc3c(cc2F)c(=O)c(C(=O)O)cn3C2CC2)CC1CN (stereo not drawn) [Gemifloxacin]
[2]; concentration 0.1
  Regrowth, OD600 at 6h or 8h after dilution into drug-free medium: 0.486
[2]; concentration 0.5
  Regrowth, OD600 at 6h or 8h after dilution into drug-free medium: 0.138
[2]; concentration 2.5
  Regrowth, OD600 at 6h or 8h after dilution into drug-free medium: 0.091
[2]; concentration 10
  Regrowth, OD600 at 6h or 8h after dilution into drug-free medium: 0.090
[2]
  pEC50: 6.78
non-growing UPEC CFT073; E. coli in 1:4 CA-MHB (pH 7.4), concentration 0.25
  log10(CFU/ml) after treatment: 9.342 log10(CFU/ml) and 9.204 log10(CFU/ml) and 8.505 log10(CFU/ml)
non-growing UPEC CFT073; E. coli in 1:4 CA-MHB (pH 7.4), concentration 0.5
  log10(CFU/ml) after treatment: 8.845 log10(CFU/ml) and 8.778 log10(CFU/ml) and 8.000 log10(CFU/ml)
non-growing UPEC CFT073; E. coli in 1:4 CA-MHB (pH 7.4), concentration 1
  log10(CFU/ml) after treatment: 8.699 log10(CFU/ml) and 8.079 log10(CFU/ml) and 7.301 log10(CFU/ml)
non-growing UPEC CFT073; E. coli in 1:4 CA-MHB (pH 7.4), concentration 2.5
  log10(CFU/ml) after treatment: 8.230 log10(CFU/ml) and 7.602 log10(CFU/ml) and 7.301 log10(CFU/ml)
non-growing UPEC CFT073; E. coli in 1:4 CA-MHB (pH 7.4), concentration 5
  log10(CFU/ml) after treatment: 7.903 log10(CFU/ml) and 7.415 log10(CFU/ml) and 7.322 log10(CFU/ml)
non-growing UPEC CFT073; E. coli in 1:4 CA-MHB (pH 7.4), concentration 10
  log10(CFU/ml) after treatment: 8.146 log10(CFU/ml) and 7.041 log10(CFU/ml) and 6.602 log10(CFU/ml)
non-growing UPEC CFT073; E. coli in LPM (pH 5.5), concentration 0.25
  log10(CFU/ml) after treatment: 6.778 log10(CFU/ml) and 7.146 log10(CFU/ml) and 8.322 log10(CFU/ml)
non-growing UPEC CFT073; E. coli in LPM (pH 5.5), concentration 0.5
  log10(CFU/ml) after treatment: 7.000 log10(CFU/ml) and 7.255 log10(CFU/ml) and 8.301 log10(CFU/ml)
non-growing UPEC CFT073; E. coli in LPM (pH 5.5), concentration 1
  log10(CFU/ml) after treatment: 7.041 log10(CFU/ml) and 7.362 log10(CFU/ml) and 8.079 log10(CFU/ml)
non-growing UPEC CFT073; E. coli in LPM (pH 5.5), concentration 2.5
  log10(CFU/ml) after treatment: 6.778 log10(CFU/ml) and 7.255 log10(CFU/ml) and 8.230 log10(CFU/ml)
non-growing UPEC CFT073; E. coli in LPM (pH 5.5), concentration 5
  log10(CFU/ml) after treatment: 7.230 log10(CFU/ml) and 7.380 log10(CFU/ml) and 8.146 log10(CFU/ml)
non-growing UPEC CFT073; E. coli in LPM (pH 5.5), concentration 10
  log10(CFU/ml) after treatment: 7.176 log10(CFU/ml) (2×) and 8.230 log10(CFU/ml)
